Converted amounts (≈) assume the structure as drawn. Where a name gives a salt, the structure may show the parent alone. Read-outs that look alike come from different tables or passages of the source.
Legend:
[1] = In vitro dissolution simulation experiment, phosphate buffer pH 7.4; assay type: physicochemical; details: pH 7.4 phosphate buffer, 37° C.
Description: The mixtures were shaken at 37° C.

[2] = Related substances stability of solids under stress conditions (HPLC); assay type: physicochemical; details: for Total related substances: left to stand under these conditions for 10 days
Description: (§1) Unless otherwise indicated, the starting materials and reagents in the examples below are either commercially available or prepared by one skilled in the art according to methods known in the art. The salt compounds of the examples were tested by nuclear magnetic resonance (^1H-NMR), X-ray powder diffraction (XRPD), differential scanning calorimetry (DSC), thermogravimetric analysis (TGA), hot-stage polarized light microscopy (PLM) and high performance liquid chromatography (HPLC), and the test parameters are as follows: • (1) The ^1H-NMR measurements were taken on a Bruker Advance III500M nuclear magnetic resonance spectrometer at a frequency of […] with deuterated DMSO as the solvent. • (2) The DSC measurements were taken on a sealed pan device in TA Instruments model Q2000: samples (about 1-2 mg) were weighed in aluminum pans and transferred to the instrument for measurement. The test parameters are as follows: the instrument was equilibrated at 30° C. and heated to 300° C. at a rate of 10° C./min, data was collected, and the experiments were conducted in a nitrogen atmosphere. • (3) The TGA measurements were taken on a TA Instruments model Q500 device: samples (about 2-5 mg) were weighed in aluminum pans and transferred to the instrument for measurement. The test parameters are as follows: the instrument was heated to 350° C. at a rate of 10° C./min, data was collected, and the experiments were conducted in a nitrogen atmosphere. • (4) The XRPD measurements were taken on a Bruker model D8 Advance X-ray powder diffractometer using a round zero background single crystal silicon sample stage. The scan parameters are as follows: voltage, 40 kv; current, 40 mA; scan range, 3-45°; scan increment, 0.02°; scan mode, continuous scan. • (5) The PLM analyses were performed under a model DYP990/TPH350 hot stage polarizing microscope from Shanghai Dian Ying Optical Instruments: a small amount of sample was dispersed in a glass slide and photographed using an eyepiece lens at a magnification of 10× and an objective lens at a magnification of 5-40×. • (6) Methods of measuring HPLC content and detecting related substances: […]

physchem = details: for solubility at 24 h: 37 °C, thermodynamic from solid
Description: The mixtures were shaken at 37° C. for 24 h and filtered through 0.45 μm aqueous-phase filter membranes. The filtrates were collected and the solubility was determined by high performance liquid chromatography. pH3, pH4, pH5 and pH6 represent acetate buffer solutions, and pH7, pH7.4, pH8 and pH9 represent phosphate buffer solutions.

[3] = Pharmacokinetic experiment in rats (plasma cariprazine, LC-MS/MS); assay type: in vivo, SD rats
Description: In the whole experiment, the animals from the intramuscular injection group were given ad libitum access to food and water, and those from the oral intragastrical group were fasted overnight before administration and given access to food 4 h after administration.
Plasma sample collection: about 150 μL of blood was collected from the jugular vein (whole blood was centrifuged within 30 min to isolate plasma) and placed in a tube containing anticoagulant EDTA-K2, and after treatment, plasma was stored in a freezer at −70° C. before use.
Pretreatment of plasma sample: to 30 μL of plasma sample was added 200 μL of internal standard solution (40 ng/mL Glipizide acetonitrile solution); the mixture was vortexed for 1 min and centrifuged at 5800 rpm at 4° C. for 10 min; 100 μL of supernatant was transferred to a new plate and 1 μL of solution was taken for LC-MS/MS analysis.

[4] = Crystalline form stability of solids under stress conditions (XRPD); assay type: physicochemical
Description: as §1

[5] = left to stand under these conditions for 10 days

Compound	Concentration ([1]; 1 (h))	Concentration ([1]; 3.5 (h))	Concentration ([1]; 5 (h))	Concentration ([1]; 7 (h))	Concentration ([1]; 24 (h))	Total related substances [2]	further results
CN(C)C(=O)NC1CCC(CCN2CCN(c3cccc(Cl)c3Cl)CC2)CC1 (centres unmarked) [Amorphous cariprazine embonate, cariprazine embonate]	11940 ng/mL	10300 ng/mL	9580 ng/mL	7080 ng/mL	9900 ng/mL		Increase in impurities ([2]; high-temperature conditions): bigger increase in impurities
CN(C)C(=O)N[C@H]1CC[C@H](CCN2CCN(c3cccc(Cl)c3Cl)CC2)CC1 [Cariprazine]							solubility at 24 h (physchem; pH 8, aqueous buffer): 1 µg/mL (≈ 2.34 µM); solubility at 24 h (physchem; water): ~180 µg/mL (≈ 421 µM)
CN(C)C(=O)NC1CCC(CCN2CCN(c3cccc(Cl)c3Cl)CC2)CC1 (centres unmarked) [Crystalline form A of cariprazine embonate]	1000 ng/mL	3400 ng/mL	4100 ng/mL	3900 ng/mL	2500 ng/mL	remained substantially unchanged	Length of release among the crystalline forms ([3]; rats, single intramuscular injection 9 mg/kg): best length of release; Crystalline form [4, 5]: its crystalline form did not change; Crystallinity [4, 5]: did not change significantly
CN(C)C(=O)NC1CCC(CCN2CCN(c3cccc(Cl)c3Cl)CC2)CC1 (centres unmarked) [Crystalline form B of cariprazine embonate]	5300 ng/mL	4000 ng/mL	5200 ng/mL	2200 ng/mL	1700 ng/mL	remained substantially unchanged	
CN(C)C(=O)NC1CCC(CCN2CCN(c3cccc(Cl)c3Cl)CC2)CC1 (centres unmarked) [Crystalline form G of cariprazine embonate]	1300 ng/mL	4510 ng/mL	2280 ng/mL	1840 ng/mL	8050 ng/mL	remained substantially unchanged	
CN(C)C(=O)NC1CCC(CCN2CCN(c3cccc(Cl)c3Cl)CC2)CC1 (centres unmarked) [cariprazine embonate]							Absorption after oral administration ([3]; rat, in vivo, po, 0.3 mg/kg): fast absorption; Crystalline form ([4]; high-humidity conditions and accelerated conditions): change into crystalline form A of cariprazine embonate; Crystalline form ([4]; high-temperature conditions and illuminated conditions): its crystalline form did not change
CN(C)C(=O)N[C@H]1CC[C@H](CCN2CCN(c3cccc(Cl)c3Cl)CC2)CC1 [cariprazine hydrochloride]							solubility at 24 h (physchem; pH 3, aqueous buffer): 12300 µg/mL; solubility at 24 h (physchem; pH 4, aqueous buffer): 9770 µg/mL; solubility at 24 h (physchem; pH 5, aqueous buffer): 1080 µg/mL; solubility at 24 h (physchem; water): ~11000 µg/mL
cariprazine malate							Solubility (physchem): >1065.7 µg/mL; Solubility (physchem; pH 3): >266.4 µg/mL; Solubility (physchem; pH 5): >228.4 µg/mL; Solubility (physchem; pH 7): <304.5 µg/mL; Solubility (physchem; pH 9): <152.2 µg/mL
cariprazine succinate							Solubility (physchem): >261.2 µg/mL; Solubility (physchem; pH 3): >215.5 µg/mL; Solubility (physchem; pH 9): <215.5 µg/mL
